{"source": "paper PMC3587566", "about": "“The Ultra-Potent and Selective TLR8 Agonist VTX-294 Activates Human Newborn and Adult Leukocytes” (PLoS ONE, 2013)", "type_in_all_cases": "cell-based", "key": {"[1]": {"test_system": "human adult peripheral blood", "assay": "Adult whole blood assay, TNF / IL-1β ELISA", "conditions": "mean, n = 4-9; for EC50: Homo sapiens"}, "human neonatal MoDCs": {"test_system": "human neonatal MoDCs", "assay": "Neonatal monocyte-derived dendritic cell (MoDC) stimulation, TNF ELISA", "conditions": "24 h", "text": "Heparinized human newborn cord blood or adult peripheral blood was layered onto Ficoll-Hypaque gradients (Ficoll-Paque PREMIUM, GE Healthcare, Waukesha, WI) to collect CBMC or peripheral blood mononuclear cell layers (PBMC), respectively. Monocytes were isolated from mononuclear cell fractions by positive selection by magnetic microbeads according to the manufacturer’s instructions (Miltenyi Biotec, Auburn, CA) using CD14 or CD33 as a pan-marker for monocytes. Monocyte preparations were >95% pure as assessed by flow cytometry for CD14 as previously described. […] After 5–6 days, immature MoDCs (HLA-DR^+, CD14^−, DC-SIGN^+ as measured by flow cytometry) of >90% purity were harvested by gently pipetting only the loosely adherent fraction and re-plated (10^5 cells/well) in 96-well U-bottom plates in the presence or absence of TLR agonists.\nFollowing TLR agonist stimulation, MoDCs were resuspended in staining buffer (1×PBS, 0.5% human serum albumin (HSA)) and stained for 30 min at 4°C in the dark (1.5×10^5/per staining) with fluorophore-labeled antibodies (FITC/HLA-DR and PE/CD86) (BD Biosciences). Cells were then centrifuged, washed, fixed (1% paraformaldehyde (PFA)) and filtered prior to flow cytometry analysis using a MoFlo Legacy cytometer (DakoCytomation, Fort Collins, CO) and analyzed using FlowJo software (Tree Star). […]"}, "human newborn cord blood [2]": {"test_system": "human newborn cord blood", "assay": "Newborn whole blood assay, TNF / IL-1β ELISA", "conditions": "for Newborn WBA IL-1β / Newborn WBA TNF: baseline subtracted", "text": "(§1) Peripheral blood was collected from healthy adult volunteers, while human newborn cord blood was collected immediately after Cesarean section delivery of the placenta. Births to HIV-positive mothers were excluded. Human experimentation guidelines of the U.S. Department of Health and Human Services, The Brigham & Women’s Hospital, and Boston Children’s Hospital were observed, following protocols approved by the local institutional review boards. Human blood was anti-coagulated with 15–20 units/ml pyrogen-free sodium heparin (American Pharmaceutical Partners, Inc., Schaumberg, IL). All blood products were kept at room temperature and processed within 4 hrs of collection.\n(§2) For assessment of TLR agonist activity in whole blood, we used an adaptation of the method of Kollmann et al., [33]. […] Suspensions containing 200 µl/well were gently mixed by pipetting and incubated for 2–24 h at 37°C in a humidified incubator at 5% CO2. After culture, plates were centrifuged at 500×g and 110–150 µl of supernatant was carefully removed by pipetting without disturbing the cell pellet. Supernatants derived from human leukocyte stimulations were assayed by ELISA for TNF (BD Biosciences, San Jose, CA, USA) and IL-1β (eBiosciences, San Diego, CA). Additionally, WB supernatants were analysed by Multi-Analyte Profiling (MAP). Briefly, supernatant samples were frozen at −80°C and submitted to Myriad RBM (Austin, TX, USA) for screening with a modified Human InflammationMAP® v. 1.6 antigen panel, which analyzed the samples for the presence of 98 analytes associated with inflammation. The minimum threshold for each analyte was set at the minimum detectable dose for that particular assay (defined as three standard deviations above the mean background).\n(§3) Compound concentrations are shown in µM, except for MPLA, which are shown in ng/ml. Data are shown as mean ± SEM of n = 5–8."}, "[3]": {"test_system": "human adult peripheral blood", "assay": "Adult whole blood assay, TNF / IL-1β ELISA", "conditions": "baseline subtracted", "text": "as §1, §2, §3"}, "human newborn cord blood [4]": {"test_system": "human newborn cord blood", "assay": "Newborn whole blood assay, TNF / IL-1β ELISA", "conditions": "mean, n = 4-9"}}, "note": "Read-outs that look alike come from different tables or passages of the source.", "data": [{"molecule": "CCOCc1nc2c(N)nc3ccccc3c2n1CC(C)(C)O", "note": "[R848]", "values": [{"measurement": "EC50", "setting": "[1]; read-out: Adult WBA IL-1β EC50", "result": 1620, "unit": "nM"}, {"measurement": "EC50", "setting": "[1]; read-out: Adult WBA TNF EC50", "result": 1040, "unit": "nM"}, {"measurement": "lowest concentration inducing MoDC TNF production", "setting": "human neonatal MoDCs; tested 0.1, 0.3, 10 µM", "result": 10, "unit": "µM"}, {"measurement": "EC50", "setting": "human newborn cord blood [2]; Homo sapiens, mean, n = 4-9, read-out: Newborn WBA IL-1β EC50", "result": 6650, "unit": "nM"}, {"measurement": "Newborn WBA IL-1β", "setting": "human newborn cord blood [2]; agonist 0.1 μM", "result": 0, "unit": "pg/mL"}, {"measurement": "Newborn WBA TNF", "setting": "human newborn cord blood [2]; agonist 0.1 μM", "result": 0, "unit": "pg/mL"}, {"measurement": "Newborn WBA IL-1β", "setting": "human newborn cord blood [2]; agonist 0.3 μM", "result": 9, "unit": "pg/mL"}, {"measurement": "Newborn WBA TNF", "setting": "human newborn cord blood [2]; agonist 0.3 μM", "result": 0, "unit": "pg/mL"}, {"measurement": "Newborn WBA IL-1β", "setting": "human newborn cord blood [2]; agonist 1 μM", "result": 285, "unit": "pg/mL"}, {"measurement": "Newborn WBA TNF", "setting": "human newborn cord blood [2]; agonist 1 μM", "result": 2164, "unit": "pg/mL"}, {"measurement": "Newborn WBA IL-1β", "setting": "human newborn cord blood [2]; agonist 10 μM", "result": 7442, "unit": "pg/mL"}, {"measurement": "Newborn WBA TNF", "setting": "human newborn cord blood [2]; agonist 10 μM", "result": 33609, "unit": "pg/mL"}, {"measurement": "Newborn WBA IL-1β", "setting": "human newborn cord blood [2]; agonist 100 μM", "result": 10822, "unit": "pg/mL"}, {"measurement": "Newborn WBA TNF", "setting": "human newborn cord blood [2]; agonist 100 μM", "result": 20117, "unit": "pg/mL"}, {"measurement": "Adult WBA IL-1β", "setting": "[3]; agonist 0.1 μM", "result": 2, "unit": "pg/mL"}, {"measurement": "Adult WBA TNF", "setting": "[3]; agonist 0.1 μM", "result": 132, "unit": "pg/mL"}, {"measurement": "Adult WBA IL-1β", "setting": "[3]; agonist 0.3 μM", "result": 27, "unit": "pg/mL"}, {"measurement": "Adult WBA TNF", "setting": "[3]; agonist 0.3 μM", "result": 750, "unit": "pg/mL"}, {"measurement": "Adult WBA IL-1β", "setting": "[3]; agonist 1 μM", "result": 779, "unit": "pg/mL"}, {"measurement": "Adult WBA TNF", "setting": "[3]; agonist 1 μM", "result": 6661, "unit": "pg/mL"}, {"measurement": "Adult WBA IL-1β", "setting": "[3]; agonist 10 μM", "result": 4762, "unit": "pg/mL"}, {"measurement": "Adult WBA TNF", "setting": "[3]; agonist 10 μM", "result": 13913, "unit": "pg/mL"}, {"measurement": "Adult WBA IL-1β", "setting": "[3]; agonist 100 μM", "result": 4694, "unit": "pg/mL"}, {"measurement": "Adult WBA TNF", "setting": "[3]; agonist 100 μM", "result": 9982, "unit": "pg/mL"}, {"measurement": "EC50", "setting": "human newborn cord blood [4]; Homo sapiens, read-out: Newborn WBA TNF EC50", "result": 1500, "unit": "nM"}]}, {"molecule": "monophosphoryl lipid A [MPLA]", "values": [{"measurement": "Adult WBA IL-1β EC50", "setting": "[1]", "result": 0.00159, "unit": "µg/mL"}, {"measurement": "Adult WBA TNF EC50", "setting": "[1]", "result": 0.01259, "unit": "µg/mL"}, {"measurement": "lowest concentration inducing MoDC TNF production (p<0.05 vs unstimulated)", "setting": "human neonatal MoDCs; tested 1, 10, 100 ng/ml", "result": 10, "unit": "ng/mL"}, {"measurement": "Newborn WBA IL-1β", "setting": "human newborn cord blood [2]; agonist 0.1 ng/ml", "result": 0, "unit": "pg/mL"}, {"measurement": "Newborn WBA TNF", "setting": "human newborn cord blood [2]; agonist 0.1 ng/ml", "result": 0, "unit": "pg/mL"}, {"measurement": "Newborn WBA IL-1β", "setting": "human newborn cord blood [2]; agonist 0.3 ng/ml", "result": 0, "unit": "pg/mL"}, {"measurement": "Newborn WBA TNF", "setting": "human newborn cord blood [2]; agonist 0.3 ng/ml", "result": 11, "unit": "pg/mL"}, {"measurement": "Newborn WBA IL-1β", "setting": "human newborn cord blood [2]; agonist 1 ng/ml", "result": 24, "unit": "pg/mL"}, {"measurement": "Newborn WBA TNF", "setting": "human newborn cord blood [2]; agonist 1 ng/ml", "result": 29, "unit": "pg/mL"}, {"measurement": "Newborn WBA IL-1β", "setting": "human newborn cord blood [2]; agonist 10 ng/ml", "result": 682, "unit": "pg/mL"}, {"measurement": "Newborn WBA TNF", "setting": "human newborn cord blood [2]; agonist 10 ng/ml", "result": 642, "unit": "pg/mL"}, {"measurement": "Newborn WBA IL-1β", "setting": "human newborn cord blood [2]; agonist 100 ng/ml", "result": 1628, "unit": "pg/mL"}, {"measurement": "Newborn WBA TNF", "setting": "human newborn cord blood [2]; agonist 100 ng/ml", "result": 3665, "unit": "pg/mL"}, {"measurement": "Adult WBA IL-1β", "setting": "[3]; agonist 0.1 ng/ml", "result": 5, "unit": "pg/mL"}, {"measurement": "Adult WBA TNF", "setting": "[3]; agonist 0.1 ng/ml", "result": 128, "unit": "pg/mL"}, {"measurement": "Adult WBA IL-1β", "setting": "[3]; agonist 0.3 ng/ml", "result": 27, "unit": "pg/mL"}, {"measurement": "Adult WBA TNF", "setting": "[3]; agonist 0.3 ng/ml", "result": 33, "unit": "pg/mL"}, {"measurement": "Adult WBA IL-1β", "setting": "[3]; agonist 1 ng/ml", "result": 95, "unit": "pg/mL"}, {"measurement": "Adult WBA TNF", "setting": "[3]; agonist 1 ng/ml", "result": 215, "unit": "pg/mL"}, {"measurement": "Adult WBA IL-1β", "setting": "[3]; agonist 10 ng/ml", "result": 763, "unit": "pg/mL"}, {"measurement": "Adult WBA TNF", "setting": "[3]; agonist 10 ng/ml", "result": 3353, "unit": "pg/mL"}, {"measurement": "Adult WBA IL-1β", "setting": "[3]; agonist 100 ng/ml", "result": 3153, "unit": "pg/mL"}, {"measurement": "Adult WBA TNF", "setting": "[3]; agonist 100 ng/ml", "result": 9158, "unit": "pg/mL"}, {"measurement": "Newborn WBA IL-1β EC50", "setting": "human newborn cord blood [4]", "result": 0.01148, "unit": "µg/mL"}, {"measurement": "Newborn WBA TNF EC50", "setting": "human newborn cord blood [4]", "result": 0.01457, "unit": "µg/mL"}]}]}
